pIC50: −log10 of the molar value. Blank lines part the entries; values can stand above or below the molecule they belong to.
Tests used:
[1] = system: Rattus norvegicus; assay: Anti-inflammatory activity against LPS-induced paw edema in Sprague-Dawley rat assessed as inhibition of paw edema; type: functional
[2] = system: RAW264.7; assay: Anti-inflammatory activity against mouse RAW264.7 cells assessed as inhibition of LPS-induced NO production pre-treated with compound for 1 hr followed by LPS-stimulation and measured for 1 hr; type: functional, cell-based
[3] = system: Neutrophil; assay: Inhibition of fMLF/CB-induced human Neutrophil activation assessed as reduction in elastase release using MeO-Suc-Ala-Ala-Pro-Val-pnitroanilide as substrate pre-incubated for 2 mins followed by fMLF/CB-stimulation and measured for 5 mins; type: functional, cell-based
[4] = system: HaCaT; assay: Anti-inflammatory activity in LPS-stimulated human HaCaT cells assessed as reduction of IL-6 expression at 12.5 uM; type: functional; design: scale not given: the % may be the effect or the level left
[5] = target: Transient receptor potential cation channel subfamily V member 1 (Homo sapiens) (UniProt Q8NER1); assay: Inhibition of TRPV-1 (unknown origin) at 12.5 uM relative to control
Sequence of Transient receptor potential cation channel subfamily V member 1 (Homo sapiens) (Q8NER1 whole entry): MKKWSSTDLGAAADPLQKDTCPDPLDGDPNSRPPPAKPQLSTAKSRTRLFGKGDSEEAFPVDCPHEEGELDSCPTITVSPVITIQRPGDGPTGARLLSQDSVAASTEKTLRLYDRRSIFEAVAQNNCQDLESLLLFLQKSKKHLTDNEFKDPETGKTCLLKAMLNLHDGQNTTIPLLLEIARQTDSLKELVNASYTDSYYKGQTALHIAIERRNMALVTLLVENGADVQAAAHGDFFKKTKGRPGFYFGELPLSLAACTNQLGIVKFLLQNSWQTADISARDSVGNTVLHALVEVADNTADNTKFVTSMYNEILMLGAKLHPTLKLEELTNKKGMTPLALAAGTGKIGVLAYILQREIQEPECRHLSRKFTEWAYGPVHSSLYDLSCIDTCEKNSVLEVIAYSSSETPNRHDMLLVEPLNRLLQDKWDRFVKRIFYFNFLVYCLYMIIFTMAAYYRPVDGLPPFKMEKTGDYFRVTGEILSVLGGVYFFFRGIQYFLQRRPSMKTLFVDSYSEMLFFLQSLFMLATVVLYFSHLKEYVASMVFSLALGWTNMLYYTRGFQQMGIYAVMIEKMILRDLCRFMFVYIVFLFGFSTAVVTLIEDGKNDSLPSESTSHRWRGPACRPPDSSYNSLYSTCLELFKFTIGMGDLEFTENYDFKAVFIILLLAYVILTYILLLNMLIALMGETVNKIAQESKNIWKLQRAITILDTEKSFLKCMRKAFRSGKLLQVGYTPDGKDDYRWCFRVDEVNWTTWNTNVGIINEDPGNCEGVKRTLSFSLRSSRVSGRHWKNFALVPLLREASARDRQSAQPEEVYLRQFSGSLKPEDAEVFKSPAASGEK

[6] = system: RAW264.7; assay: Antiinflammatory activity against mouse RAW264.7 cells assessed as inhibition of LPS-stimulated TNF-alpha level by ELISA method; type: functional, cell-based
[7] = system: J774.A1; assay: Antiinflammatory activity against mouse J774.A1 cells assessed as inhibition of LPS-stimulated IL-1beta level by ELISA method; type: functional, cell-based
[8] = system: RAW264.7; assay: Anti-inflammatory activity against mouse RAW264.7 cells assessed as inhibition of TNF-alpha production incubated for 18 hrs by ELISA analysis; type: functional, cell-based; settings: RAW264.7, 18 h
[9] = system: Rattus norvegicus; assay: Anti-inflammatory activity in LPS-induced Sprague-Dawley rat assessed as reduction in IL-1beta level at 20 mg/kg, po pre-incubated for 1 hr with compound followed by LPS-stimulation measured for 24 hrs by ELISA analysis; type: functional; design: scale not given: the % may be the effect or the level left; settings: time 25 hrs
[10] = system: RAW264.7; assay: Antiinflammatory activity against mouse RAW264.7 cells assessed as inhibition of LPS-stimulated IL-1beta level by ELISA method; type: functional, cell-based
[11] = system: Rattus norvegicus; assay: Anti-inflammatory activity in LPS-induced Sprague-Dawley rat assessed as reduction in TNF-alpha level at 20 mg/kg, po pre-incubated for 1 hr with compound followed by LPS-stimulation measured for 24 hrs by ELISA analysis; type: functional; design: scale not given: the % may be the effect or the level left; settings: time 25 hrs
[12] = system: RAW264.7; assay: Anti-inflammatory activity against mouse RAW264.7 cells assessed as inhibition of IL-1beta level incubated for 18 hrs by ELISA analysis; type: functional, cell-based; settings: RAW264.7, 18 h
[13] = system: J774.A1; assay: Antiinflammatory activity against mouse J774.A1 cells assessed as inhibition of LPS-stimulated TNF-alpha level by ELISA method; type: functional, cell-based; settings: Mus musculus, J774.A1; read-out: IC50
[14] = system: BV-2; assay: Anti-inflammatory activity against LPS-induced mouse BV-2 cells assessed as reduction in Interleukin-1beta production at 10 uM pre-incubated for 30 mins followed by LPS-stimulation and measured after 6 hrs by RT-PCR analysis; type: functional; design: scale not given: the % may be the effect or the level left; settings: time 390 min, 6.5 h
[15] = system: BV-2; assay: Anti-inflammatory activity against LPS-induced mouse BV-2 cells assessed as inhibition of COX-2 level at 12.5 microg/ml pre-incubated for 30 mins followed by LPS-stimulation and measured after 6 hrs by RT-PCR analysis; type: functional; design: scale not given: the % may be the effect or the level left; settings: dose 12.5 µg/ml; time 390 min; 6.5 h
[16] = system: BV-2; assay: Anti-inflammatory activity against LPS-induced mouse BV-2 cells assessed as inhibition of 5-lipoxygenase level at 25 microg/ml pre-incubated for 30 mins followed by LPS-stimulation and measured after 6 hrs by RT-PCR analysis; type: functional; design: scale not given: the % may be the effect or the level left; settings: dose 25 µg/ml; time 390 min; 6.5 h
[17] = system: BV-2; assay: Anti-inflammatory activity against LPS-induced mouse BV-2 cells assessed as reduction in IL-6 production at 10 uM pre-incubated for 30 mins followed by LPS-stimulation and measured after 6 hrs by RT-PCR analysis; type: functional; design: scale not given: the % may be the effect or the level left; settings: time 390 min, 6.5 h
[18] = system: RAW264.7; assay: Anti-inflammatory activity against mouse RAW264.7 cells assessed as inhibition of LPS-induced NO production; type: functional, cell-based
[19] = system: Mus musculus; assay: Anti-inflammatory activity against TPA-induced mouse ear edema model assessed as inhibition of ear edema at 1 uM relative to control; type: functional; design: scale not given: the % may be the effect or the level left
[20] = system: Mus musculus; assay: Anti-inflammatory activity against xylene-induced ear edema Swiss mouse model assessed as inhibition of ear edema at 0.025 ug/ml, po measured after 6 hrs relative to control; type: functional; design: scale not given: the % may be the effect or the level left; settings: dose 0.025 µg/ml
[21] = system: Rattus norvegicus; assay: Anti-inflammatory activity against carrageenan-induced paw edema in Wistar rat assessed as reduction in paw edema at 100 mg/kg, po measured after 3 hrs relative to control; type: functional; design: scale not given: the % may be the effect or the level left
[22] = system: Mus musculus; assay: Anti-inflammatory activity against xylene-induced ear edema Swiss mouse model assessed as inhibition of ear edema at 0.25 ug/ml, po measured after 6 hrs relative to control; type: functional; design: scale not given: the % may be the effect or the level left; settings: dose 0.25 µg/ml
[23] = system: Rattus norvegicus; assay: Anti-inflammatory activity against carrageenan-induced paw edema in Wistar rat assessed as reduction in paw edema at 100 mg/kg, po measured after 1 hrs relative to control; type: functional; design: scale not given: the % may be the effect or the level left
[24] = system: Neutrophil; assay: Inhibition of fMLF/CB-induced human Neutrophil activation assessed as reduction in elastase release at 10 uM relative to control; type: functional; design: scale not given: the % may be the effect or the level left
[25] = target: T1, Neutrophil elastase (Homo sapiens, UniProt P08246); assay: Inhibition of human Neutrophil elastase; type: cell-based
T1 sequence (P08246 whole entry): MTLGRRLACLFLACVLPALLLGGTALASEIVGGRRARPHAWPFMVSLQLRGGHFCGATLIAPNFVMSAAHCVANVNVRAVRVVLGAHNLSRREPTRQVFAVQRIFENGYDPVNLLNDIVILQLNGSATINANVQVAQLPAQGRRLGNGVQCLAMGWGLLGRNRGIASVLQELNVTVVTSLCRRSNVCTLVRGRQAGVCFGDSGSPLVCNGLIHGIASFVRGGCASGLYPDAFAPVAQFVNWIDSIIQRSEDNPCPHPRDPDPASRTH

[26] = Anti-inflammatory activity in carrageenan-induced human PBMC cells assessed as inhibition of IL-beta leakage at 10 uM measured for 24 hrs relative to control; type: functional; design: scale not given: the % may be the effect or the level left
[27] = system: RAW264.7; assay: Anti-inflammatory activity against LPS-stimulated mouse RAW264.7 cells assessed as inhibition of IL-6 expression at 100 uM by qRT-PCR analysis relative to control; type: functional; design: scale not given: the % may be the effect or the level left
[28] = system: BV-2; assay: Anti-inflammatory activity against mouse BV-2 cells assessed as inhibition of LPS-induced PGE2 production at 50 uM pretreated for 2 hrs followed stimulated with LPS for 22 hrs by ELISA analysis relative to control; type: functional; design: scale not given: the % may be the effect or the level left; settings: time 24 hrs
[29] = system: RAW264.7; assay: Anti-inflammatory activity against LPS-stimulated mouse RAW264.7 cells assessed as inhibition of IL-6 expression at 10 uM by qRT-PCR analysis relative to control; type: functional; design: scale not given: the % may be the effect or the level left
[30] = system: BV-2; assay: Anti-inflammatory activity against mouse BV-2 cells assessed as inhibition of LPS-induced COX-2 expression pretreated for 2 hrs followed stimulated with LPS for 22 hrs by ELISA analysis; type: functional, cell-based
[31] = system: BV-2; assay: Anti-inflammatory activity against mouse BV-2 cells assessed as inhibition of LPS-induced PGE2 production pretreated for 2 hrs followed stimulated with LPS for 22 hrs by ELISA analysis; type: functional, cell-based
[32] = system: HepG2; assay: Anti-inflammatory activity against TNFalpha-induced human HepG2 cells assessed as inhibition of NF-kappaB activity pre-indubated for 1 hr followed by TNFalpha treatment measured for 5 hrs by luciferase based assay; type: functional, cell-based
[33] = system: BV-2; assay: Anti-inflammatory activity against mouse BV-2 cells assessed as inhibition of LPS-induced COX-2 expression at 50 uM pretreated for 2 hrs followed stimulated with LPS for 22 hrs by ELISA analysis relative to control; type: functional; design: scale not given: the % may be the effect or the level left; settings: time 24 hrs
[34] = system: BV-2; assay: Anti-inflammatory activity against mouse BV-2 cells assessed as inhibition of LPS-induced IL-1beta secretion pretreated for 2 hrs followed stimulated with LPS for 22 hrs by ELISA analysis; type: functional, cell-based
[35] = system: BV-2; assay: Anti-inflammatory activity against mouse BV-2 cells assessed as inhibition of LPS-induced IL-6 pre-treated for 2 hrs followed stimulated with LPS for 22 hrs; type: functional, cell-based
[36] = system: BV-2; assay: Anti-inflammatory activity in mouse BV-2 cells assessed as reduction in LPS-induced NO production; type: functional, cell-based
[37] = system: BV-2; assay: Anti-inflammatory activity against mouse BV-2 cells assessed as inhibition of LPS-induced IL-6 at 50 uM pre-treated for 2 hrs followed stimulated with LPS for 22 hrs relative to control; type: functional; design: scale not given: the % may be the effect or the level left; settings: time 24 hrs
[38] = system: THP-1; assay: Anti-inflammatory activity in human THP-1 cells assessed as inhibition of LPS-stimulated NO production by ELISA analysis; type: functional, cell-based
[39] = system: RAW264.7; assay: Anti-inflammatory activity in mouse RAW264.7 cells assessed as reduction in LPS-induced NO production by ELISA analysis; type: functional, cell-based
[40] = system: BV-2; assay: Anti-inflammatory activity against mouse BV-2 cells assessed as inhibition of LPS-induced IL-1beta secretion at 50 uM pretreated for 2 hrs followed stimulated with LPS for 22 hrs by ELISA analysis relative to control; type: functional; design: scale not given: the % may be the effect or the level left; settings: time 24 hrs
[41] = system: RAW264.7; assay: Anti-inflammatory activity in LPS-stimulated mouse RAW264.7 cells assessed as inhibition of NO production by Griess reagent based analysis; type: functional, cell-based
[42] = system: RAW264.7; assay: Anti-inflammatory activity in LPS-stimulated mouse RAW264.7 cells assessed as inhibition of NO production by Griess reagent based assay; type: functional, cell-based

pIC50 [6]: 4.63 | pIC50 [7]: 4.71 | pIC50 [8]: > 4.66 | pIC50 [10]: 4.76 | pIC50 [12]: 4.40 | pIC50 [13]: 4.43
SMILES: COc1cc(O)c2c(c1)OC(c1ccccc1)CC2=O (configuration not stated)
Activity [9]: 53.1% | Activity [11]: 48.6%

pIC50 [18]: 4.92
SMILES: O=c1cc(-c2ccc(O)cc2)oc2cc(O)cc(O)c12 [APIGENIN]
Activity [14]: 68% | Activity [15]: 89.2% | Activity [16]: 88.3% | Activity [17]: 68%

pIC50 [25]: 6.46
SMILES: COc1ccc(-c2cc(=O)c3c(O)c(OC)c(OC)c(OC)c3o2)cc1OC [5-DEMETHYLNOBILETIN]
Activity [20]: 79% | Activity [21]: 47% | Activity [22]: 41% | Activity [23]: 65% | Activity [24]: 89% | Activity [26]: 24.8%

pIC50 [30]: 4.22 | pIC50 [31]: 4.28 | pIC50 [32]: 4.69 | pIC50 [34]: 4.09 | pIC50 [35]: 4.09 | pIC50 [36]: 4.98 | pIC50 [38]: 4.80 | pIC50 [39]: 4.85
SMILES: O=c1c(O)c(-c2ccc(O)cc2)oc2cc(O)cc(O)c12 [KAEMPFEROL]
Activity [27]: 64.5% | Activity [28]: 65.2% | Activity [29]: 80.7% | Activity [33]: 51.4% | Activity [37]: 28.1% | Activity [40]: 53.2%

The remaining lines, values behind:

SMILES: COc1ccc(-c2cc(=O)c3c(O)c(OC)c(O)cc3o2)cc1OC [EUPATILIN]
ID50 [1]: 0.28 umol/cm2

SMILES: CC(C)=CCC/C(C)=C/Cc1c(O)ccc2c1O[C@H](c1ccc(O)cc1)CC2=O
pIC50 [2]: 5.09

SMILES: COc1cc(O)c2c(=O)cc(-c3ccc(O)c(O)c3)oc2c1
pIC50 [3]: ≥ 4.82 | Activity [4]: 52% | inhibition [5]: 33%

SMILES: O=c1c(O)c(-c2ccccc2)oc2cc(O)cc(O)c12 [GALANGIN]
Activity [19]: 27.7%

SMILES: COc1cc(-c2cc(=O)c3c(O)cc(O)cc3o2)cc(OC)c1O [TRICIN]
pIC50 [41]: 4.55 | pIC50 [42]: 4.33

From ChEMBL document CHEMBL5543059, “Discovery of anti-inflammatory natural flavonoids: Diverse scaffolds and promising leads for drug discovery” (Eur J Med Chem, 2023)
